Source: patent publication US6251893A, “Bicyclic piperidine and piperazine compounds having 5-HT6 receptor affinity” (NPS Allelix Corp., priority 1998, dated 2001)

Tests used:
5-HT2A receptor = 5-HT2A receptor (Homo sapiens, UniProt P28223); test: Binding to 5-HT2A receptor (selectivity); design: dose or concentration left out as unconfirmed; settings: selectivity versus 5-HT6; read-out: percent inhibition for the 5-HT2A receptor
5HT2C receptor = molecular target: T1, 5HT2C receptor (Homo sapiens, UniProt P28335); test: Binding to 5HT2C receptor (selectivity); settings: selectivity versus 5-HT6; read-out: percent inhibition for the 5HT2C receptor
T1 sequence (P28335 33-458): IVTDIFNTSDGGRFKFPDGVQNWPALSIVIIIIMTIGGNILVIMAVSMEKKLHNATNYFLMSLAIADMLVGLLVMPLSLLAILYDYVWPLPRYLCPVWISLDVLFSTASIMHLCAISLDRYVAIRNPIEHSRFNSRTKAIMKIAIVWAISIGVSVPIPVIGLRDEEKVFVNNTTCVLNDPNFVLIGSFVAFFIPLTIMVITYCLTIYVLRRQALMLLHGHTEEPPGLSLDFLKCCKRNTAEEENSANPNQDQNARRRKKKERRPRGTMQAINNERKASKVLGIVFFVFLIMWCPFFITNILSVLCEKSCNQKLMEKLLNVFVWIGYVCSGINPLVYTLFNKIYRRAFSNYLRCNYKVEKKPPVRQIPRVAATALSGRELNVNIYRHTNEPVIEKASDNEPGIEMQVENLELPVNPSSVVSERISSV

5-HT7 receptor = 5-HT7 receptor (Homo sapiens, UniProt P34969); test: Binding to 5-HT7 receptor (selectivity); design: dose or concentration left out as unconfirmed; settings: selectivity versus 5-HT6; read-out: percent inhibition for the 5-HT7 receptor
human 5HT6 receptor = human 5HT6 receptor (Homo sapiens, UniProt P50406); test: Binding affinity for the 5-HT6 receptor (3H-LSD displacement); design: expressed in transfected cells; settings: 100 nM test compound; 3H-LSD (2 nM); 60 minute incubation at 37° C; read-out: percent inhibition of radioligand binding for the 5-HT6 receptor
Procedure: Binding Affinity for the 5-HT6 Receptor
The assay protocol generally entailed the incubation of membranes prepared from cells expressing the 5-HT6 receptor with ^3 H-LSD (2 nM). Increasing levels of the test compound were incubated with the radioligand and the membrane homogenates prepared from the recombinant cells. After a 60 minute incubation at 37° C., the incubation was terminated by vacuum filtration. The filters were washed with buffer and the filters were counted for radioactivity using liquid scintillation spectrometry. […] Concentrations ranging from 10^-11 M to 10^-5 M of the test compound were evaluated. […] Affinity for the 5-HT6 receptor is expressed as the amount (in percent) of binding of the radioligand that is inhibited in the presence of 100 nM of test compound. A greater percent inhibition indicates greater affinity for the 5-HT6 receptor.

Chain of human 5HT6 receptor (P50406 whole entry): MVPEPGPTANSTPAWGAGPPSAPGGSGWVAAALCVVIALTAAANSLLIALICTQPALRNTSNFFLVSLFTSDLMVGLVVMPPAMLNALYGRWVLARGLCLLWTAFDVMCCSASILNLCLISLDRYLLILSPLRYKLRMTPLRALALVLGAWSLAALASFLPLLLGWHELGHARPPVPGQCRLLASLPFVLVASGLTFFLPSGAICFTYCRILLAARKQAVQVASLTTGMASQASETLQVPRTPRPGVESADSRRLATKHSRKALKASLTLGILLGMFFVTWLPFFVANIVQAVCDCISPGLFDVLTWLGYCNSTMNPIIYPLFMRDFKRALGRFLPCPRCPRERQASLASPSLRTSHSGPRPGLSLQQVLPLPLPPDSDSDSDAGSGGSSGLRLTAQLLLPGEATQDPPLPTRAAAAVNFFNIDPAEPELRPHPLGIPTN
Chain of 5-HT7 receptor (P34969 whole entry): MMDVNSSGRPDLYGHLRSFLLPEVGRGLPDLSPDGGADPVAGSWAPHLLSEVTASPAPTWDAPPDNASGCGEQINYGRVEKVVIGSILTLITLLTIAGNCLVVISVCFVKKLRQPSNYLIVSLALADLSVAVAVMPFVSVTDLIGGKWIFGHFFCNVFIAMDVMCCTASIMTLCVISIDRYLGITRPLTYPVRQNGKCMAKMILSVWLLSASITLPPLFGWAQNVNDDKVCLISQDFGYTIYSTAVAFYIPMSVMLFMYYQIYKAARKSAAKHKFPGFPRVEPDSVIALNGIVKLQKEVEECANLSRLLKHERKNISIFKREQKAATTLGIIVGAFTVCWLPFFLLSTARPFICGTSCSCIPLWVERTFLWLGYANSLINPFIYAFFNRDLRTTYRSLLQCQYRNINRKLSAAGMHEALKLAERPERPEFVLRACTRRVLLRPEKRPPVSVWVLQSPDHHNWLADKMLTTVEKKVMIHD
Chain of 5-HT2A receptor (P28223 whole entry): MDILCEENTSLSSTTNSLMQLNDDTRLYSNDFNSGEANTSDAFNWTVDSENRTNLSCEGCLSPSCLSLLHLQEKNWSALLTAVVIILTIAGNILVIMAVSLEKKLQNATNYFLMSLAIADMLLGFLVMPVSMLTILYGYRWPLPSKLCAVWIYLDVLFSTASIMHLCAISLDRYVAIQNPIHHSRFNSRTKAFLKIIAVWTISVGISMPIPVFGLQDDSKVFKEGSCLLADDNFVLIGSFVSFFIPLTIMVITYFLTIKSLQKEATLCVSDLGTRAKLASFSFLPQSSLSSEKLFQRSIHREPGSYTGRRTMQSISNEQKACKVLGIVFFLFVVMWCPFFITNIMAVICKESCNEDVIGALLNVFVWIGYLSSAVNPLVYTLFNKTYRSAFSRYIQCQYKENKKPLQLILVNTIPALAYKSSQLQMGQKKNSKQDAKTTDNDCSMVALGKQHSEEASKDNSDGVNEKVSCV

O=S(=O)(c1cccc2ccccc12)n1cc(C2=CCN3CCCC3C2)c2cc(F)cc(F)c21 (racemic) [Example 6kk, 5,7-Difluoro-3-[(8a-R,S)-1,2,3,5,8,8a-hexahydro-7-indolizinyl]-1-naphthalenesulfonylindole]
inhibition (5-HT2A receptor): < 20% | inhibition at 0.1 µM (5HT2C receptor): < 20% | inhibition (5-HT7 receptor): < 20% | inhibition at 0.1 µM (human 5HT6 receptor): > 80%

O=S(=O)(c1ccc2ccccc2c1)n1cc(N2CCN3CCCCC3C2)c2ccccc21 (racemic) [Example 6l, 3-[(6-R,S)-1,4-Diaza[4.4. 0]bicyclodecan-4-yl]-1-(2-naphthalenesulfonyl)indole]
inhibition (5-HT2A receptor): < 20% | inhibition at 0.1 µM (5HT2C receptor): < 20% | inhibition (5-HT7 receptor): < 20% | inhibition at 0.1 µM (human 5HT6 receptor): > 80%

O=S(=O)(c1ccc2ccccc2c1)n1cc(C2=CCN3CCCC3C2)c2cc(F)cc(F)c21 (racemic) [Example 6ll, 5,7-Difluoro-3-[(8a-R,S)-1,2,3,5,8,8a-hexahydro-7-indolizinyl]-2-naphthalenesulfonylindole]
inhibition (5-HT2A receptor): < 20% | inhibition at 0.1 µM (5HT2C receptor): < 20% | inhibition (5-HT7 receptor): < 20% | inhibition at 0.1 µM (human 5HT6 receptor): > 80%

O=S(=O)(c1cccc2ccccc12)n1cc(N2CCN3CCCCC3C2)c2ccccc21 (racemic) [Example 6m, 3-[(6-R,S)-1,4-Diaza[4.4. 0]bicyclodecan-4-yl]-1-(1-naphthalenesulfonyl)indole]
inhibition (5-HT2A receptor): < 20% | inhibition at 0.1 µM (5HT2C receptor): < 20% | inhibition (5-HT7 receptor): < 20% | inhibition at 0.1 µM (human 5HT6 receptor): > 80%

COc1ccc2c(c1)c(C1=CCN3CCCC3C1)cn2S(=O)(=O)c1ccccc1 (racemic) [Example 6mm, 5-Methoxy-3-[(8a-R,S)-1,2,3,5,8,8a-hexahydro-7-indolizinyl]-1-phenylsulfonylindole]
inhibition (5-HT2A receptor): < 20% | inhibition at 0.1 µM (5HT2C receptor): < 20% | inhibition (5-HT7 receptor): < 20% | inhibition at 0.1 µM (human 5HT6 receptor): > 80%

O=S(=O)(c1ccc(Br)cc1)n1cc(N2CCN3CCCCC3C2)c2ccccc21 (racemic) [Example 6n, 1-(4-Bromophenylsulfonyl)-3-[(6-R,S)-1,4-diaza[4.4. 0]bicyclodecan-4-yl]indole]
inhibition (5-HT2A receptor): < 20% | inhibition at 0.1 µM (5HT2C receptor): < 20% | inhibition (5-HT7 receptor): < 20% | inhibition at 0.1 µM (human 5HT6 receptor): > 80%

COc1ccc2c(c1)c(C1=CCN3CCCC3C1)cn2S(=O)(=O)c1cccc2ccccc12 (racemic) [Example 6nn, 5-Methoxy-3-[(8a-R,S)-1,2,3,5,8,8a-hexahydro-7-indolizinyl]-1-naphthalenesulfonylindole]
inhibition (5-HT2A receptor): < 20% | inhibition at 0.1 µM (5HT2C receptor): < 20% | inhibition (5-HT7 receptor): < 20% | inhibition at 0.1 µM (human 5HT6 receptor): > 80%

COc1ccc2c(c1)c(C1=CCN3CCCC3C1)cn2S(=O)(=O)c1ccc2ccccc2c1 (racemic) [Example 6oo, 5-Methoxy-3-[(8a-R,S)-1,2,3,5,8,8a-hexahydro-7-indolizinyl]-2-naphthalenesulfonylindole]
inhibition (5-HT2A receptor): < 20% | inhibition at 0.1 µM (5HT2C receptor): < 20% | inhibition (5-HT7 receptor): < 20% | inhibition at 0.1 µM (human 5HT6 receptor): > 80%

O=S(=O)(c1ccc(Cl)cc1)n1cc(N2CCN3CCCCC3C2)c2ccccc21 (racemic) [Example 6p, 1-(4-Chlorophenylsulfonyl)-3-[(6-R,S)-1,4-diaza[4.4. 0]bicyclodecan-4-yl]indole]
inhibition (5-HT2A receptor): < 20% | inhibition at 0.1 µM (5HT2C receptor): < 20% | inhibition (5-HT7 receptor): < 20% | inhibition at 0.1 µM (human 5HT6 receptor): > 80%

Cc1ccc2c(c1)c(C1=CCN3CCCC3C1)cn2S(=O)(=O)c1ccccc1 (racemic) [Example 6pp, 5-Methyl-3-[(8a-R,S)-1,2,3,5,8,8a-hexahydro-7-indolizinyl]-1-phenylsulfonylindole]
inhibition (5-HT2A receptor): < 20% | inhibition at 0.1 µM (5HT2C receptor): < 20% | inhibition (5-HT7 receptor): < 20% | inhibition at 0.1 µM (human 5HT6 receptor): > 80%

Cc1ccc2c(c1)c(C1=CCN3CCCC3C1)cn2S(=O)(=O)c1cccc2ccccc12 (racemic) [Example 6qq, 5-Methyl-3-[(8a-R,S)-1,2,3,5,8,8a-hexahydro-7-indolizinyl]-1-naphthalenesulfonylindole]
inhibition (5-HT2A receptor): < 20% | inhibition at 0.1 µM (5HT2C receptor): < 20% | inhibition (5-HT7 receptor): < 20% | inhibition at 0.1 µM (human 5HT6 receptor): > 80%

Cc1ccc2c(c1)c(C1=CCN3CCCC3C1)cn2S(=O)(=O)c1ccc2ccccc2c1 (racemic) [Example 6rr, 5-Methyl-3-[(8a-R,S)-1,2,3,5,8,8a-hexahydro-7-indolizinyl]-2-naphthalenesulfonylindole]
inhibition (5-HT2A receptor): < 20% | inhibition at 0.1 µM (5HT2C receptor): < 20% | inhibition (5-HT7 receptor): < 20% | inhibition at 0.1 µM (human 5HT6 receptor): > 80%

Cc1cccc2c(C3=CCN4CCCC4C3)cn(S(=O)(=O)c3ccccc3)c12 (racemic) [Example 6ss, 7-Methyl-3-[(8a-R,S)-1,2,3,5,8,8a-hexahydro-7-indolizinyl]-1-phenylsulfonylindole]
inhibition (5-HT2A receptor): < 20% | inhibition at 0.1 µM (5HT2C receptor): < 20% | inhibition (5-HT7 receptor): < 20% | inhibition at 0.1 µM (human 5HT6 receptor): > 80%

Cc1cccc2c(C3=CCN4CCCC4C3)cn(S(=O)(=O)c3cccc4ccccc34)c12 (racemic) [Example 6tt, 7-Methyl-3-[(8a-R,S)-1,2,3,5,8,8a-hexahydro-7-indolizinyl]-1-naphthalenesulfonylindole]
inhibition (5-HT2A receptor): < 20% | inhibition at 0.1 µM (5HT2C receptor): < 20% | inhibition (5-HT7 receptor): < 20% | inhibition at 0.1 µM (human 5HT6 receptor): > 80%

O=S(=O)(c1ccccc1)n1cc(N2CCN3CCCCC3C2)c2ccccc21 (racemic) [Example 6u, 3-[(6-R,S)-1,4-Diaza[4.4.0]bicyclodecan-4-yl]-1-(phenylsulfonyl)indole]
inhibition (5-HT2A receptor): < 20% | inhibition at 0.1 µM (5HT2C receptor): < 20% | inhibition (5-HT7 receptor): < 20% | inhibition at 0.1 µM (human 5HT6 receptor): > 80%

O=S(=O)(c1ccc2ccccc2c1)n1cc(C2=CCN3CCCC3C2)c2cc(F)ccc21 (racemic) [Example 6z, 5-Fluoro-3-[(8a-R,S)-1,2,3,5,8,8a-hexahydro-7-indolizinyl]-1-(2-naphthalenesulfonyl)indole]
inhibition (5-HT2A receptor): < 20% | inhibition at 0.1 µM (5HT2C receptor): < 20% | inhibition (5-HT7 receptor): < 20% | inhibition at 0.1 µM (human 5HT6 receptor): > 80%
